Measurements as given in patent publication US20240342167A1, “INHIBITORS OF PORCINE REPRODUCTIVE AND RESPIRATORY SYNDROME VIRUS” (University of Connecticut, priority 2023, published 2024).
“Also recorded” adds a separate entry of the source.

Key:
[1] = target: T1, GFP-fusion CD163-SRCR5 (GFP-fused SRCR5 domain of porcine CD163, recombinant, expressed in E. coli BL21 (DE3)) (Sus scrofa, UniProt Q2VL90); experiment: Microscale thermophoresis (MST) assay: direct association of compounds with purified GFP-fused CD163-SRCR5; format: binding; settings: Monolith NT.115, blue channel, values represent Mean, N=3
T1 construct: GFP and GFP-SRCR2 as controls
T1 sequence (Q2VL90 477-577 limits assumed): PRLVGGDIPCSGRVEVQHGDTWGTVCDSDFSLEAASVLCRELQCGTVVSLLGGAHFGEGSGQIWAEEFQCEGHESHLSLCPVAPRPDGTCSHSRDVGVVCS
Method: The amino acids within the LBP and loop 5-6 regions are underlined. […] B7 was placed in position 1 (Boxes) to show the potential disturbing of both conformations. […] B7 was placed in position 2 (Box) to show the potential disturbing of this conformation. […] Values represent Mean, N=3. […] Values represent Mean, N=3. […] Values represent Mean, N=3.
All chemicals (dissolved in 10 mM in DMSO) were designed and provided by Atomwise, Inc. (CA, USA). Compounds were further diluted in PBS (137 mM NaCl, 2.7 mM KCl, 8 mM Na2HPO4, and 2 mM KH2PO4, pH 7.4, Gibco, MA, USA) to 200 μM as the working solution. Pulmonary alveolar macrophages (PAMs) were harvested from healthy 4-6-month Landrace/Yorkshire pigs. Briefly, pig lungs were removed from euthanized pigs during necropsy and transferred on ice to the lab. 200 mL warm PBS with 200 U/mL penicillin and 200 μg/mL streptomycin was injected into trachea and reached major bronchi of both sides of the lungs. Lungs were then massaged and bronchoalveolar lavage fluid (BALF) was collected. PAMs were harvested from the BALF by centrifugation at 400×g for 15 min and washed in PBS twice. Fresh PAMs were counted and frozen in 90% FBS and 10% DMSO (Sigma-Aldrich, MO) in liquid nitrogen. PAMs were cultivated in RPMI-1640 (Gibco, MA) supplemented with 10% FBS, 2 mM Glutamax, 0.1 mM MEM Non-Essential Amino Acids, 1 mM sodium pyruvate, 100 U/mL penicillin and 100 μg/mL streptomycin, and 0.5 μg/mL Amphotericin B. SRCR5 domain of porcine CD163 receptor was amplified from cDNA of pig cells and inserted into pBiFC-VN155 (I152L). PRRSV GP2a and GP4 were amplified from reverse-transcribed genome of PRRSV VR2332 strain and cloned into pBiFC-VC155 vector as previously described (Huang et al., Virol J 17, 116, 2020). Porcine CD163 was cloned into pMXs vector (Cell Biolabs, CA, USA). For protein purification, […] were cloned into pET28b-GFP (Addgene, MA, USA).
The recombinant pET28b-GFP-SRCR2/SRCR5 constructs were transformed into Escherichia coli strain BL21 (DE3) (New England Biolabs, MA, USA). The transformed clones were cultured at 37° C. in LB broth with […] kanamycin, induced by adding 1 mM isopropyl β-D-1-thiogalactopyranoside at optical density of 0.6-0.8, and then incubated at 37° C. for 3 h. For protein purification, cells were pelleted and resuspended in xTractor Buffer containing DNAse I, lysozyme solution, and Protease Inhibitor Cocktail (Takara Bio USA, Inc., CA). The suspension was sonicated and centrifuged. […]
(§1) The purified GFP, GFP-fused SRCR2 or SRCR5 proteins were mixed with serially diluted compounds. The mixtures were loaded to capillaries and the affinity was measured by Monolith NT.115 (NanoTemper Technologies, Inc., CA, USA) at corresponding MST power with the blue channel. […]

[2] = target: T2, GFP; experiment: Microscale thermophoresis (MST) assay: association of B7 with purified GFP (control protein); format: binding; settings: Monolith NT.115, blue channel, GFP alone (control), values represent Mean, N=3
T2 construct: made in house
Method: Values represent Mean, N=3.
(§2) The recombinant pET28b-GFP-SRCR2/SRCR5 constructs were transformed into Escherichia coli strain BL21 (DE3) (New England Biolabs, MA, USA). The transformed clones were cultured at 37° C. in LB broth with […] kanamycin, induced by adding 1 mM isopropyl β-D-1-thiogalactopyranoside at optical density of 0.6-0.8, and then incubated at 37° C. for 3 h. For protein purification, cells were pelleted and resuspended in xTractor Buffer containing DNAse I, lysozyme solution, and Protease Inhibitor Cocktail (Takara Bio USA, Inc., CA). The suspension was sonicated and centrifuged. The supernatant was incubated with equilibrated TALON Metal Affinity Resin (Takara Bio USA, Inc., CA, USA) and then were eluted from resin with the elution buffer (pH 7.0, 150 mM imidazole, 50 mM NaH2PO4, and 300 mM NaCl). The eluted proteins were concentrated and with buffer exchanged to phosphate-buffered saline (pH 7.4) containing 0.05% Tween-20 (PBST) using Protein Concentrator PES, 10 kD MWCO (Pierce Biotechnology, PA, USA).
as §1

[3] = target: T3, PPI between PRRSV GP4 and CD163-SRCR5 domain (Sus scrofa, UniProt Q2VL90); experiment: BiFC assay GP4/SRCR5; format: cell-based, porcine CD163; PRRSV VR2332; settings: for Average GP4 (relative fluorescence intensity, SRCR5/GP4 BiFC): 5 μM, HEK293T, 24 h after transfection, relative to NC (DMSO), n=3, 5 µM
T3 construct: SRCR5 domain of porcine CD163 receptor was amplified from cDNA of pig cells; expressed in transfected cells; host or cells: HEK293T
T3 sequence (Q2VL90 477-577): as the sequence (Q2VL90 477-577 limits assumed) above
Method: (§3) HEK293T cells were cultivated in 6-well plates in FP medium and transfected with 1 μg XpBiFC-VN155 (I152L)-SRCR5 and 1 μg pBiFC-VC155-GP2/GP4 using Fugene6. After 4 h, cells were digested with 0.05% Typsin-EDTA (ThermoFisher Scientific, MA, USA)) and passaged to 48-well plates which were coated with EmbryoMax 0.1% Gelatin Solution (Sigma-Aldrich, MO, USA) and preloaded with 5 μM B7 analogues. Fluorescence images were taken at 24 h after transfection and fluorescence intensity was measured by image J.

[4] = test system: GFP; experiment: Microscale thermophoresis (MST), GFP; format: binding
Method: as §2
(§4) The purified GFP, GFP-fused SRCR2 or SRCR5 proteins were mixed with serially diluted compounds. The mixtures were loaded to capillaries and the affinity was measured by Monolith NT.115 (NanoTemper Technologies, Inc., CA, USA) at corresponding MST power with the blue channel.

[5] = target: T4, GFP-fusion CD163-SRCR5 (Sus scrofa, UniProt Q2VL90); experiment: Microscale thermophoresis (MST), GFP-SRCR5; format: binding, porcine; settings: read-out: dissociation constant (Kd)
T4 construct: The purified GFP, GFP-fused SRCR2 or SRCR5 proteins were mixed with serially diluted compounds; made in house; host or cells: Escherichia coli BL21 (DE3)
T4 sequence (Q2VL90 477-577 limits assumed): as above
Method: as §2, §4

[6] = target: T5, PPI between PRRSV glycoprotein GP2a and CD163-SRCR5 (Sus scrofa, UniProt Q2VL90); experiment: BiFC assay GP2a/SRCR5; format: cell-based, porcine CD163; PRRSV VR2332; settings: for Average GP2a (relative fluorescence intensity, SRCR5/GP2a BiFC): 5 μM, HEK293T, 24 h after transfection, relative to NC (DMSO) = 1.00, n=3, 5 µM
T5 construct: SRCR5 domain of porcine CD163 receptor was amplified from cDNA of pig cells; expressed in transfected cells; host or cells: HEK293T
T5 sequence (Q2VL90 477-577): as the sequence (Q2VL90 477-577 limits assumed) above
Method: as §3

[7] = target: T6, GFP-fusion CD163-SRCR2 (Sus scrofa, UniProt Q2VL90); experiment: Microscale thermophoresis (MST), GFP-SRCR2; format: binding, porcine
T6 construct: The purified GFP, GFP-fused SRCR2 or SRCR5 proteins were mixed with serially diluted compounds; made in house; host or cells: Escherichia coli BL21 (DE3)
T6 sequence (Q2VL90 158-258 limits assumed): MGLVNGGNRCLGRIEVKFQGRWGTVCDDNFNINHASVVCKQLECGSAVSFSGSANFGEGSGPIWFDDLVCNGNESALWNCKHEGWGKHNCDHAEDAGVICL
Method: as §2, §4

`Cc1cccc(S(=O)(=O)Nc2nc3ccccc3nc2Nc2cccc(S(=O)(=O)N3CCCCC3)c2)c1` [Compound E10] was tested, and the Kd [1] was 38 µM.
For `Cc1cc(F)ccc1S(=O)(=O)Nc1nc2ccccc2nc1Nc1cccc(S(=O)(=O)N2CCOCC2)c1` [Compound B7], the Kd [2] was 2110 µM.
Work on `Cc1ccc(S(=O)(=O)Nc2nc3ccccc3nc2Nc2cccc(S(=O)(=O)N3CCCCC3)c2)cc1` [Compound B7-A4] yielded a Kd [1] of 22.9 µM.
`COc1ccccc1NS(=O)(=O)c1cccc(Nc2nc3ccccc3nc2NS(=O)(=O)c2ccc(F)cc2C)c1` [Compound F9] showed a Kd [1] of 24.7 µM.
With `Cc1cc(F)ccc1S(=O)(=O)Nc1nc2ccccc2nc1Nc1cccc(S(=O)(=O)N2CCOCC2)c1` [B7] the “Average GP4 (relative fluorescence intensity, SRCR5/GP4 BiFC)” value ([3]; listed as H5, 1440 min) was 0.06, the “Average GP4 (relative fluorescence intensity, SRCR5/GP4 BiFC)” value ([3]; listed as PC, 1440 min) was 0.24 and the inhibition at 5 µM ([3]; HEK-293T, read-out: reduction of the YFP fluorescence signal compared with NC (inhibition in GP4/SRCR5 BiFC)) was greater than 70%. The “association with GFP (in words)” value [4] was “little or no association”, the Kd [5] was 32 µM and the “Average GP2a (relative fluorescence intensity, SRCR5/GP2a BiFC)” value ([6]; listed as H5, 1440 min) was 0.15. For the same molecule, the “Average GP2a (relative fluorescence intensity, SRCR5/GP2a BiFC)” value ([6]; listed as PC, 1440 min) was 0.02, the “inhibition of the PPI between PRRSV GP2a and CD163 SRCR5 (in words)” value ([6]; positive control) was “significantly inhibited” and the “association with GFP-SRCR2 (in words)” value [7] was “little or no association; also recorded: did not interact”.
Molecule `COc1ccc(NS(=O)(=O)c2cccc(Nc3nc4ccccc4nc3NS(=O)(=O)c3ccc(F)cc3C)c2)cc1` [Compound E3] has a Kd [1] of 330 µM.
